Test results reported in patent US11083707B2, “Substituted indoline derivatives as dengue viral replication inhibitors” (JANSSEN PHARMACEUTICALS, INC., priority 2017, dated 2021).

Tested on: Vero cells
Experiment: not given
Details: African green monkey

Question: With `COc1cc(NC(C(=O)N2CCc3cc(OC)c(C(F)(F)F)cc32)c2ccc(Cl)cc2OCCO)cc(-n2cncn2)c1` (single isomer, unassigned) [Compound 5B] as the molecule, how does the CC50 read?
Answer: 9200 nM

Question: Which CC50 does the source give for `COc1cc(NC(C(=O)N2CCc3cc(F)c(C(F)(F)F)cc32)c2ccc(Cl)cc2OCCO)cc(-n2cncn2)c1` (single isomer, unassigned) [Compound 7B] here?
Answer: 7600 nM

Question: Which CC50 does the source give for `COc1cc(NC(C(=O)N2CCc3cc(OC)c(OC(F)(F)F)cc32)c2ccc(Cl)cc2OCCO)cc(-n2cncn2)c1` (single isomer, unassigned) [Compound 8B] here?
Answer: 12000 nM

Question: For `COc1cc(NC(C(=O)N2CCc3cc(F)c(OC(F)(F)F)cc32)c2ccc(Cl)cc2OCCO)cc(-n2cncn2)c1` (single isomer, unassigned) [Compound 9A], which CC50 is on record?
Answer: 4200 nM

Tested on: DENV-2 strain 16681
Experiment: Tetravalent RT-qPCR assay Protocol A, serotype 2
Type: cell-based
Details: Dengue virus, DENV2, 72 h; RT-qPCR serotype 2 16681, Vero cells, day 3; read-out: EC50
Procedure: (§1) The antiviral activity of the compounds of the invention was tested against DENV-1 strain TC974#666 (NCPV), DENV-2 strain 16681, DENV-3 strain H87 (NCPV) and DENV-4 strain H241 (NCPV) in a RT-qPCR assay. Therefore, Vero cells were infected with either DENV-1, or -2, or -3, or -4 in the presence or absence of test compounds. At day 3 post-infection, the cells were lysed and cell lysates were used to prepare cDNA of both a viral target (the 3′UTR of DENV; Table 2) and a cellular reference gene (β-actin, Table 2). Subsequently, a duplex real time PCR was performed on a Lightcycler480 instrument. The generated Cp value is inversely proportional to the amount of RNA expression of these targets. Inhibition of DENV replication by a test compound results in a shift of Cp's for the 3′UTR gene. On the other hand, if a test compound is toxic to the cells, a similar effect on β-actin expression will be observed. The comparative ΔΔCp method is used to calculate EC50, which is based on the relative gene expression of the target gene (3′UTR) normalized with the cellular housekeeping gene (β-actin). In addition, CC50 values are determined based on the Cp values acquired for the housekeeping gene β-actin.
(§2) The culture medium consisted of minimal essential medium supplemented with 2% of heat-inactivated fetal calf serum, 0.04% gentamycin (50 mg/mL) and 2 mM of L-glutamine. Vero cells, obtained from ECACC, were suspended in culture medium and 75 μL/well was added in 96-well plates (10000 cells/well), which already contain the antiviral compounds. […] In addition, each plate contains wells which are assigned as virus controls (containing cells and virus in the absence of compound) and cell controls (containing cells in the absence of virus and compound). Once the cells were added in the plates, the plates were incubated in a fully humidified incubator (37° C., 5% CO2) until the next day. Dengue viruses serotype-1, 2, 3 and 4 were diluted in order to obtain a Cp of ˜22-24 in the assay. Therefore, 25 μL of virus suspension was added to all the wells containing test compound and to the wells assigned as virus control. In parallel, 25 μL of culture medium was added to the cell controls. Next, the plates were incubated for 3 days in a fully humidified incubator (37° C., 5% CO2). After 3 days, the supernatant was removed from the wells and the cells were washed twice with ice-cold PBS (˜100 μL). The cell pellets within the 96-well plates were stored at −80° C. for at least 1 day. Next, RNA was extracted using the Cells-to-CT™ lysis kit, according to the manufacturer's guideline (Life Technologies). The cell lysates can be stored at −80° C. or immediately used in the reverse transcription step.
(§3) In preparation of the reverse transcription step, mix A (table 3A) was prepared and 7.57 μL/well was dispensed in a 96-well plate. After addition of 5 μL of the cell lysates, a five minute denaturation step at 75° C. was performed (table 3B). Afterwards, 7.43 μL of mix B was added (table 3C) and the reverse transcription step was initiated (table 3D) to generate cDNA.
(§4) Finally, a RT-qPCR mix was prepared, mix C (table 4A), and 22.02 μL/well was dispensed in 96-well LightCycler qPCR plates to which 3 μL of cDNA was added and the qPCR was performed according to the conditions in table 4B on a LightCycler 480.
(§5) Using the LightCycler software and an in-house LIMS system, dose response curves for each compound were calculated and the half maximal effective concentration (EC50) and the half maximal cytotoxic concentration (CC50) were determined (Tables 5-8).

Question: For `COc1cc(NC(C(=O)N2CCc3cc(OC)c(C(F)(F)F)cc32)c2ccc(Cl)cc2OCCO)cc(-n2cncn2)c1` (single isomer, unassigned) [Compound 5B], which EC50 is on record?
Answer: 0.52 nM

Question: Which EC50 does the source give for `COc1cc(NC(C(=O)N2CCc3cc(F)c(C(F)(F)F)cc32)c2ccc(Cl)cc2OCCO)cc(-n2cncn2)c1` (single isomer, unassigned) [Compound 7B] here?
Answer: 1.9 nM

Tested on: not listed separately
Experiment: in vitro
Type: cell-based
Details: African green monkey
Procedure: as §1, §2, §3, §4, §5

Question: Which CC50 at 3 days does the source give for `COc1cc(NC(C(=O)N2CCc3cc(OC)c(C(F)(F)F)cc32)c2ccc(Cl)cc2OCCO)cc(-n2cncn2)c1` (single isomer, unassigned) [Compound 5B] here?
Answer: > 2500 nM

Tested on: DENV-4 strain H241
Experiment: Tetravalent RT-qPCR assay Protocol A, serotype 4
Type: cell-based
Details: Dengue virus, DENV4, 72 h; RT-qPCR serotype 4 H241, Vero cells, day 3
Procedure: as §1, §2, §3, §4, §5

Question: For `COc1cc(NC(C(=O)N2CCc3cc(OC)c(C(F)(F)F)cc32)c2ccc(Cl)cc2OCCO)cc(-n2cncn2)c1` (single isomer, unassigned) [Compound 5B], which EC50 is on record?
Answer: 90 nM

Question: Which EC50 does the source give for `COc1cc(NC(C(=O)N2CCc3cc(F)c(C(F)(F)F)cc32)c2ccc(Cl)cc2OCCO)cc(-n2cncn2)c1` (single isomer, unassigned) [Compound 7B] here?
Answer: 120 nM

Tested on: DENV-1 strain TC974#666
Experiment: Tetravalent RT-qPCR assay Protocol A, serotype 1
Type: cell-based
Details: Dengue virus, DENV1, 72 h; RT-qPCR serotype 1 TC974#666, Vero cells, day 3
Procedure: as §1, §2, §3, §4, §5

Question: Which EC50 does the source give for `COc1cc(NC(C(=O)N2CCc3cc(OC)c(C(F)(F)F)cc32)c2ccc(Cl)cc2OCCO)cc(-n2cncn2)c1` (single isomer, unassigned) [Compound 5B] here?
Answer: 2 nM

Question: Which EC50 does the source give for `COc1cc(NC(C(=O)N2CCc3cc(F)c(C(F)(F)F)cc32)c2ccc(Cl)cc2OCCO)cc(-n2cncn2)c1` (single isomer, unassigned) [Compound 7B] here?
Answer: 0.88 nM

Tested on: DENV-3 strain H87
Experiment: Tetravalent RT-qPCR assay Protocol A, serotype 3
Type: cell-based
Details: Dengue virus, DENV3, 72 h; RT-qPCR serotype 3 H87, Vero cells, day 3
Procedure: as §1, §2, §3, §4, §5

Question: With `COc1cc(NC(C(=O)N2CCc3cc(OC)c(C(F)(F)F)cc32)c2ccc(Cl)cc2OCCO)cc(-n2cncn2)c1` (single isomer, unassigned) [Compound 5B] as the molecule, how does the EC50 read?
Answer: 15 nM

Question: For `COc1cc(NC(C(=O)N2CCc3cc(F)c(C(F)(F)F)cc32)c2ccc(Cl)cc2OCCO)cc(-n2cncn2)c1` (single isomer, unassigned) [Compound 7B], which EC50 is on record?
Answer: 13 nM

Tested on: DENV-2 16681 strain
Experiment: DENV-2 antiviral assay (eGFP fluorescence, Vero cells)
Type: cell-based, Dengue virus
Details: DENV-2 16681 eGFP, MOI 0.5, 3 days
Procedure: The antiviral activity of all the compounds of the invention was tested against the DENV-2 16681 strain which was labeled with enhanced green fluorescent protein (eGPF). The culture medium consists of minimal essential medium supplemented with 2% of heat-inactivated fetal calf serum, 0.04% gentamycin (50 mg/mL) and 2 mM of L-glutamine. Vero cells, obtained from ECACC, were suspended in culture medium and 25 μL was added to 384-well plates (2500 cells/well), which already contain the antiviral compounds. Typically, these plates contain a 5-fold serial dilution of 9 dilution steps of the test compound at 200 times the final concentration in 100% DMSO (200 nL). […] Finally, each plate contains wells which are assigned as virus controls (containing cells and virus in the absence of compound), cell controls (containing cells in the absence of virus and compound) and medium controls (containing medium in the absence of cells, virus and compounds). To the wells assigned as medium control, 25 μL of culture medium was added instead of Vero cells. Once the cells were added to the plates, the plates were incubated for 30 minutes at room temperature to allow the cells to distribute evenly within the wells. Next, the plates were incubated in a fully humidified incubator (37° C., 5% CO2) until the next day. Then, DENV-2 strain 16681, labeled with eGFP, was added at a multiplicity of infection (MOI) of 0.5. Therefore, 15 μL of virus suspension was added to all the wells containing test compound and to the wells assigned as virus control. In parallel, 15 μL of culture medium was added to the medium and cell controls. Next, the plates were incubated for 3 days in a fully humidified incubator (37° C., 5% CO2). At the day of the read out, the eGFP fluorescence was measured using an automated fluorescence microscope at 488 nm (blue laser). Using an in-house LIMS system, inhibition dose response curves for each compound were calculated and the half maximal effective concentration (EC50) was determined. Therefore, the percent inhibition (I) for every test concentration is calculated using the following formula: I=100*(ST-SCC)/(SVC-SCC), ST, SCC and SVC are the amount of eGFP signal in the test compound, cell control and virus control wells, respectively. The EC50 represents the concentration of a compound at which the virus replication is inhibited with 50%, as measured by a 50% reduction of the eGFP fluorescent intensity compared to the virus control. The EC50 is calculated using linear interpolation (Table 1).

Question: With `COc1cc(NC(C(=O)N2CCc3cc(OC)c(C(F)(F)F)cc32)c2ccc(Cl)cc2OCCO)cc(-n2cncn2)c1` (single isomer, unassigned) [Compound 5B] as the molecule, how does the EC50 read?
Answer: 0.62 nM

Question: With `COc1cc(NC(C(=O)N2CCc3cc(F)c(C(F)(F)F)cc32)c2ccc(Cl)cc2OCCO)cc(-n2cncn2)c1` (single isomer, unassigned) [Compound 7B] as the molecule, how does the EC50 read?
Answer: 1.8 nM

Question: For `COc1cc(NC(C(=O)N2CCc3cc(OC)c(OC(F)(F)F)cc32)c2ccc(Cl)cc2OCCO)cc(-n2cncn2)c1` (single isomer, unassigned) [Compound 8B], which EC50 is on record?
Answer: 250 nM

Question: With `COc1cc(NC(C(=O)N2CCc3cc(F)c(OC(F)(F)F)cc32)c2ccc(Cl)cc2OCCO)cc(-n2cncn2)c1` (single isomer, unassigned) [Compound 9A] as the molecule, how does the EC50 read?
Answer: 250 nM
